Test results from ChEMBL document CHEMBL1201862, “PubChem BioAssay data set” (2004).
Calls of active or inactive are those of the source.

What was measured:
HEK293 = assay: EBV LMP1 TES2 canonical NF-kB signalling blockers – cell-based, HEK293, luciferase, cherry-pick, dose response (AID 588343); type: functional; conditions: Homo sapiens
[1] = alpha-synuclein stem-loop luciferase translation blockers – H4 neuroglioma cells, luminescence, confirmation (AID 1988); type: functional, cell-based
[2] = luciferase reporter signal suppression in cells – H4 neuroglioma cells, luminescence, dose response (AID 1990); type: functional, cell-based
[3] = Luminescence Cell-Based Dose Response HTS to Identify Inhibitors of 5'UTR Stem-Loop Driven Prion Protein mRNA Translation in H4 Neuroglioblastoma Cells. [Related pubchem assays: 1827 (Project Summary), 1813 (Primary HTS)]; type: functional
[4] = molecular target: T1, Apoptotic protease-activating factor 1 (Homo sapiens, UniProt O14727); type: functional
T1 sequence (O14727 whole entry): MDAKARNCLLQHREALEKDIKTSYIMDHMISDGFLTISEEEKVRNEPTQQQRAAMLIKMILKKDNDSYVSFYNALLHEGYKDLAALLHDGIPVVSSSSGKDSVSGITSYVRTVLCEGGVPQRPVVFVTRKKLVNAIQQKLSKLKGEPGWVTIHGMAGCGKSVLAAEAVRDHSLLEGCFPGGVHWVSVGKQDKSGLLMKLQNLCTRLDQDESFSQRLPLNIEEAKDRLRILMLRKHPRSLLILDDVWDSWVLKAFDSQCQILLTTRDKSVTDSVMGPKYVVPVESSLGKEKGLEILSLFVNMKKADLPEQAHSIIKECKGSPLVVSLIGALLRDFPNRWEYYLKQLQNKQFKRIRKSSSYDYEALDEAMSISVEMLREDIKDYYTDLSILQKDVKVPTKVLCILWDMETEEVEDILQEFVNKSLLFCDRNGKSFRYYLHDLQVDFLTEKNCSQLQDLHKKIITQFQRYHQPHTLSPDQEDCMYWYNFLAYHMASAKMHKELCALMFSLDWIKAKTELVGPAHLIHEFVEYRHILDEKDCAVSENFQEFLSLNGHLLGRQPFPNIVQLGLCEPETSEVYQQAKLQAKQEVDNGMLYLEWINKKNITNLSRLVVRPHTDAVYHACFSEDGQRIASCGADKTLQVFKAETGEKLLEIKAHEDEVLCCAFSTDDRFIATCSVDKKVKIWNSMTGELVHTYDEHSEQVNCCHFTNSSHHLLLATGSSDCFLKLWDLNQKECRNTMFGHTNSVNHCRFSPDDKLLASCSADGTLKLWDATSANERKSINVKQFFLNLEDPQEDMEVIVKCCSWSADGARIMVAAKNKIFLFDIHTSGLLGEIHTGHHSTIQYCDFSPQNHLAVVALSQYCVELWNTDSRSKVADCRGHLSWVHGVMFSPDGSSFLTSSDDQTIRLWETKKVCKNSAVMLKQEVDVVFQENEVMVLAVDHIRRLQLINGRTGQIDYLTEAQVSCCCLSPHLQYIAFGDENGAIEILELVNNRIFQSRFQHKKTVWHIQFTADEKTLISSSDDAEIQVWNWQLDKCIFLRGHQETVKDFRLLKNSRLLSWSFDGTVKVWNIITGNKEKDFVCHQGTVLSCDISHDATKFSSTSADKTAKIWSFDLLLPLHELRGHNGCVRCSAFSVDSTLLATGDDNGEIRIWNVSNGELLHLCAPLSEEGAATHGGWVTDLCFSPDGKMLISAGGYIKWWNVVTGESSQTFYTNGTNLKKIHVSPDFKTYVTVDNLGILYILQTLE

[5] = IC50 of Artemis nuclease activity blockers – biochemical, fluorescence intensity, dose response (AID 720701); type: functional;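 further: Artemis endonuclease enzyme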
Candida albicans [6] = assay: resistant Candida growth with fluconazole co-treatment – CaCi-8 strain, Alamar Blue, dry powder, set 2, dose response (AID 488909); type: functional, organism-based
Candida albicans [7] = assay: fluconazole-resistant Candida strain growth inhibitors – CaCi-8 strain, dry powder, set 4, dose response (AID 488950); type: functional, organism-based
Candida albicans [8] = assay: Candida growth reduction in fluconazole presence – CaCi-2 strain, Alamar Blue, dry powder, set 2, antifungal resistance reversal project, dose response (AID 488930); type: functional, organism-based
Candida albicans [9] = assay: C. albicans growth inhibition with fluconazole – CaCi-2 strain, Alamar Blue, dry powder, set 4, dose response (AID 488943); type: functional, organism-based
[10] = molecular target: Short transient receptor potential channel 6 (Mus musculus, UniProt Q61143); assay: mouse TRPC6 channel blockers, concentration series – HEK293 cells, membrane potential dye, IC50, selectivity assay for selective TRPC4 inhibitor project, dose response (AID 492987); type: functional, cell-based
INS1 [11] = assay: suppression of cytokine-induced beta-cell apoptosis – INS-1E, caspase luminescence, dry powder, beta-cell apoptosis inhibitor project, dose response (AID 488848); type: functional, cell-based; conditions: Rattus norvegicus
[12] = Trypanosoma cruzi growth suppression in host cells – NIH3T3 host cells, beta-gal luminescence, confirmation (AID 2044); type: functional, cell-based;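 further: intracellular parasites grown in NIH/3T3 mouse fibroblasts as host cells; luminescent beta-galactosidase reporter signal from transgenic T. cruzi replicating inside host cells; inhibitors lower the luminescence signal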
[13] = molecular target: ATP-dependent molecular chaperone HSP82 (Candida albicans (strain WO-1) (Yeast), UniProt C4YTQ8); assay: steroid-induced GRE reporter decrease in yeast – S. cerevisiae, luminescence, Hsp90 inhibitor project, dose response (AID 2400); type: functional, cell-based;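 further: beta-galactosidase luminescence from glucocorticoid response element reporter as proxy for Hsp90 function; inhibitor potency where signal loss means Hsp90 inhibition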
INS1 [14] = assay: INS-1E survival protection against cytokine death – cell-based, luminescence, retest, dose response (AID 449756); type: functional; conditions: Rattus norvegicus, INS1;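 further: cell death triggered by IL-1 beta plus TNF-alpha plus IFN-gamma mixture; protective hits raise ATP signal compared with cytokine alone wells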
[15] = fluconazole-exposed Candida albicans growth modulators – fluorescence, retest, confirmation (AID 2467); type: functional, cell-based
[16] = molecular target: T2, Replicative DNA helicase DnaB (Mycobacterium tuberculosis, UniProt P9WMR3); assay: DnaB intein splicing inhibitors, dose response, biochemical, cell-free fluorescence (AID 449749); type: functional
T2 sequence (P9WMR3 whole entry): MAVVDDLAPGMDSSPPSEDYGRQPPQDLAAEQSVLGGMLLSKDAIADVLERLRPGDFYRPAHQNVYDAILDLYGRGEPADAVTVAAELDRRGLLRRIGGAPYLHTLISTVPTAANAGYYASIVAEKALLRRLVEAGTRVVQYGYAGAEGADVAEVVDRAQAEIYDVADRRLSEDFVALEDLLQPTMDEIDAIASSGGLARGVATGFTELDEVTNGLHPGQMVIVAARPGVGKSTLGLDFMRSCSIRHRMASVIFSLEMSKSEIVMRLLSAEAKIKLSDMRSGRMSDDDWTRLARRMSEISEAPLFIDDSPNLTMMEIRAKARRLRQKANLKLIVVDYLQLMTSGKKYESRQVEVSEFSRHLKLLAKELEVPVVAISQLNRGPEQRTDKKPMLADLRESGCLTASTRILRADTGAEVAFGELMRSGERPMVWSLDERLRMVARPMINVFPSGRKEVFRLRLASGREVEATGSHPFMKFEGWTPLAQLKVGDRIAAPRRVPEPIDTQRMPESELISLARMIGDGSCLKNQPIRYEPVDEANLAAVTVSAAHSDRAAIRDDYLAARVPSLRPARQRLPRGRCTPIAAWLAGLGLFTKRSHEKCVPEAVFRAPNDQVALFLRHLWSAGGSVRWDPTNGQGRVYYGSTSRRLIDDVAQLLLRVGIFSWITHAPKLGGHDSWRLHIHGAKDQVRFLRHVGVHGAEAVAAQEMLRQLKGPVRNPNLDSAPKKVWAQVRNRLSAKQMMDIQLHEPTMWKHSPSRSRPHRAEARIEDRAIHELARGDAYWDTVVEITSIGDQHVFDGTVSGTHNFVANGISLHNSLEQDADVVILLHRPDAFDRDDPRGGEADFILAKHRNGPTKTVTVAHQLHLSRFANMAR

[17] = NIH3T3 cell viability loss – ATP luminescence, mouse fibroblasts, counter-screen, dose response (AID 2010); type: functional, cell-based;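 further: cells exposed to compound for about 90 hours before reading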
Protein RecA = molecular target: T3, Protein RecA (Mycobacterium tuberculosis, UniProt P9WHJ3); assay: Fluorescence Cell-Free Homogeneous Dose Retest to Identify Inhibitors of RecA-Intein Splicing Activity. [Related pubchem assays (depositor defined):AID2097, AID2223, AID489010, AID492950]; type: functional
T3 sequence (P9WHJ3 whole entry): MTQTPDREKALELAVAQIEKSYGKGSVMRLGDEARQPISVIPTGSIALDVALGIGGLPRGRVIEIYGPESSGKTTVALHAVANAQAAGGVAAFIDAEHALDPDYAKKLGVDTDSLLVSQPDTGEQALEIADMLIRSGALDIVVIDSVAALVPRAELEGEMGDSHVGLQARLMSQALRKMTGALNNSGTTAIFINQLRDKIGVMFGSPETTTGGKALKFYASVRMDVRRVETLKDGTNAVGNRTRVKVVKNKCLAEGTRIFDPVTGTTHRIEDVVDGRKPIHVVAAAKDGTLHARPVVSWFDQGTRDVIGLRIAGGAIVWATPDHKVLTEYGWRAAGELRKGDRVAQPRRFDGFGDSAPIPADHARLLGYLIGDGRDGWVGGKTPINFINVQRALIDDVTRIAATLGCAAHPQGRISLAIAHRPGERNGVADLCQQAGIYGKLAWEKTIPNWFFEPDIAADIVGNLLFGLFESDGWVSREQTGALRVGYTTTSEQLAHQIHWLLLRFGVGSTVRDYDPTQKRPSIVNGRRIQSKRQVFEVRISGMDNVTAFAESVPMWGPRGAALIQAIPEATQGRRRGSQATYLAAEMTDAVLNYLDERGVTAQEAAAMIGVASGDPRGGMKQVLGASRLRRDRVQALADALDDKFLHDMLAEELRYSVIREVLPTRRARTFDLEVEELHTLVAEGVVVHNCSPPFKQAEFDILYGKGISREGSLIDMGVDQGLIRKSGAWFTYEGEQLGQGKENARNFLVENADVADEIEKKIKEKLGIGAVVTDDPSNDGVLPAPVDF

[18] = molecular target: Serine/threonine-protein phosphatase (Candida dubliniensis (strain CD36 / CBS 7987 / NCPF 3949 / NRRLY-17841) (Yeast), UniProt B9W6M3); assay: blockers of CaCl2-induced CDRE-lacZ signaling – S. cerevisiae, luminescence, secondary, dose response (AID 2388); type: functional, cell-based;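 further: yeast reporter cells carrying a calcineurin-responsive lacZ construct stimulated with calcium chloride; luminescent beta-galactosidase reporter signal in whole cells rather than isolated phosphatase activity; potency for inhibition where a drop in reporter signal means calcineurin blockade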
[19] = NIH-3T3 fibroblast cytotoxicity, dose response, cytotoxicity control, cell-based, fluorescence, Alamar Blue, secondary assay (AID 2327); type: functional;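 further: NIH-3T3 mouse fibroblasts cultured with fluconazole at 8 µg/mL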

Short transient receptor potential channel 6, sequence (Q61143 whole entry): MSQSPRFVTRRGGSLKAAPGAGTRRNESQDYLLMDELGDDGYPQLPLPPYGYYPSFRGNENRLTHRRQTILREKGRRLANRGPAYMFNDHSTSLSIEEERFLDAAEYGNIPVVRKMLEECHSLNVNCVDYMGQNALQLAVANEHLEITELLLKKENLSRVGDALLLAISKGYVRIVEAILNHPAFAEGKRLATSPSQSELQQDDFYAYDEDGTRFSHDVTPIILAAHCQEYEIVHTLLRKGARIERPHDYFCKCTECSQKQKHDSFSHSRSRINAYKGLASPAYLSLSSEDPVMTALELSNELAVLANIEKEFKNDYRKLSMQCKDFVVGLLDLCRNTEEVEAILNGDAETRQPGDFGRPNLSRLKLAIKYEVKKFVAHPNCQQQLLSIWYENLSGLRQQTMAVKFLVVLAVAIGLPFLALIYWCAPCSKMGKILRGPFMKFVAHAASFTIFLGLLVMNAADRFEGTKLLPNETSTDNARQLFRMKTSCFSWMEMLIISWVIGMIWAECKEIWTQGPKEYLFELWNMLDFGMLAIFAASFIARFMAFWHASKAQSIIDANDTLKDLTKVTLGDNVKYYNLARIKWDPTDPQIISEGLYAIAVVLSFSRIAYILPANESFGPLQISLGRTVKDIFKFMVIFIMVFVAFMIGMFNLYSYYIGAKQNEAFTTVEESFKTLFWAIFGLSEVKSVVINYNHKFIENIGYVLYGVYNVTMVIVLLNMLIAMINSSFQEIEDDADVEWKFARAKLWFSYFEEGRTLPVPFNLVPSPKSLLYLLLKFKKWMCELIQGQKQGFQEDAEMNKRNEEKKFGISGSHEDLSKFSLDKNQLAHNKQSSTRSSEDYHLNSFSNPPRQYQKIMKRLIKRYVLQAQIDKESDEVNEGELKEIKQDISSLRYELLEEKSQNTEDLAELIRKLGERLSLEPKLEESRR
ATP-dependent molecular chaperone HSP82, sequence (C4YTQ8 whole entry): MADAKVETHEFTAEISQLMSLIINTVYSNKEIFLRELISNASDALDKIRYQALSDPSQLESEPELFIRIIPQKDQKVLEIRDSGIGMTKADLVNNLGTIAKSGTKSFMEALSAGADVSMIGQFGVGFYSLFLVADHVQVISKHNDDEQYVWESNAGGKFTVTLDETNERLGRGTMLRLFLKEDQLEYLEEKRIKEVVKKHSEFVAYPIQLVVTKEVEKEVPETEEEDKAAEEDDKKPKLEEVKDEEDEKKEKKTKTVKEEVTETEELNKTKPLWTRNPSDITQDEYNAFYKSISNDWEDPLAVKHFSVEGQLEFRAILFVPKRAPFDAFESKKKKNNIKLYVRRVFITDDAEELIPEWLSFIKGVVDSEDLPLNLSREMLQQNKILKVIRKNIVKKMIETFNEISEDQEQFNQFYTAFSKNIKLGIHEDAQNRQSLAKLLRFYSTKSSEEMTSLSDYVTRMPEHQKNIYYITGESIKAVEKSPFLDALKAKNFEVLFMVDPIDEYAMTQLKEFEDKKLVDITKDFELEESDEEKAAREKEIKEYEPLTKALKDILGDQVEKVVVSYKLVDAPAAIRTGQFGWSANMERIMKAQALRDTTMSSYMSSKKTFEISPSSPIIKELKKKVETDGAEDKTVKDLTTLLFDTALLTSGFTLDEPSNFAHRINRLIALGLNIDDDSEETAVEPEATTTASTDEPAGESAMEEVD
Serine/threonine-protein phosphatase, sequence (B9W6M3 whole entry): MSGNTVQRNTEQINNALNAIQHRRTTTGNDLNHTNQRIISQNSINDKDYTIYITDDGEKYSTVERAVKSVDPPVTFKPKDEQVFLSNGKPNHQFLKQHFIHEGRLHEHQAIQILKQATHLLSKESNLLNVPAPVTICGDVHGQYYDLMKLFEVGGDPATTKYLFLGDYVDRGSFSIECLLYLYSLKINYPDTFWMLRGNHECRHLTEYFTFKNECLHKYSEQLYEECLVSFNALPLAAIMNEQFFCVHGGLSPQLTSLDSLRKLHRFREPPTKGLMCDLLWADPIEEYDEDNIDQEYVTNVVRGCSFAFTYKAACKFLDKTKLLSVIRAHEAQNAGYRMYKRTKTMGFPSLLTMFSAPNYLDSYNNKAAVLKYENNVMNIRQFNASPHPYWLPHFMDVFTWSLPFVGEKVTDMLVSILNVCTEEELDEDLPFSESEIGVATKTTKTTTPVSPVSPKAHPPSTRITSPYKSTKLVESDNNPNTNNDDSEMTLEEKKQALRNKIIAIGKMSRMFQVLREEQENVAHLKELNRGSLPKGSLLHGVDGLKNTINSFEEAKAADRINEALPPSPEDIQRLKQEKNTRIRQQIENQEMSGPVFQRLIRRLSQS

SMILES: Clc1ccc(-c2cn3nc4c(nc3n2)CCCC4)cc1
- AC50 (HEK293): 1.45 µM (active)
- EC50 [1]: 1.51 µM (active)
- EC50 [2]: 3.45 µM (active)
- EC50 [3]: 5.88 µM (active)
- IC50 [4]: 17.5 µM (active)
- IC50 [5]: > 20 µM (inactive)

SMILES: O=C(c1cccc(Cl)c1)N1CCN(c2ccnc3cc(Cl)ccc23)CC1
- AC50 (Candida albicans [6]): 8.31 µM (active)
- AC50 (Candida albicans [7]): 2.43 µM (active)
- AC50 (Candida albicans [8]): 2.33 µM (active)
- AC50 (Candida albicans [9]): 2.75 µM (active)

SMILES: FC(F)(F)c1cc(N2CCCC2)nc2ccccc12
- IC50 [10]: 23.1 µM (active)

SMILES: COc1ccc(S(=O)(=O)N(C)C[C@@H]2Oc3c(NC(=O)Nc4cccc5c4ccn5C)cccc3C(=O)N([C@@H](C)CO)C[C@H]2C)cc1
- AC50 (INS1 [11]): 17.5 µM (active)

SMILES: COc1ccccc1NC1=C(N2CCCCC2)C(=O)c2ccccc2C1=O
- EC50 [12]: 0.56 µM (active)
- EC50 [13]: > 160 µM (inactive)
- AC50 (INS1 [14]): 0.916 µM (active)
- EC50 [15]: 1.02 µM (active)
- AC50 [16]: 18.6 µM (active)
- EC50 [17]: > 30 µM (not active)
- EC50 (Protein RecA): 1.51 µM (active)
- IC50 [4]: 3.32 µM (active)
- EC50 [18]: > 180 µM (inactive)
- EC50 [19]: 41.7 µM (active)
